Results taken from patent US9243281B2, “Neuroprotective chemicals and methods for identifying and using same” (Board of Regents of The University of Texas System, priority 2013, dated 2016).

Tests used:
[1] = target: T1, Human NAMPT (Homo sapiens, UniProt P43490); experiment: in vitro NAMPT coupled-enzyme assay (NADH at OD340 nm); format: biochemical; settings: relative reaction rate normalized by the control reaction run prior to compound addition; vehicle 0.98
T1 construct: made in house; host or cells: E. coli
Experimental: FIGS. 7A-7C. […] (FIG. 7A) P7C3-A20 was incubated at indicated concentrations in a reaction coupled with three enzymes; NAMPT, NMNAT, and ADH (Experimental Procedures). NAMPT activity was recorded for the indicated period of time at OD340 nm by measuring NADH appearance, leading to the indicated concentration-time plot. […] (FIG. 7B) Analysis of the activities of thirty P7C3 analogs was performed to assess their effects on NAMPT enzymatic activity. The reaction rate was calculated as the slope of the concentration-time curve. Relative reaction rate was normalized by the control reaction run prior to compound addition. Data represents the mean of experimental duplicates. Scatter graphs were plotted to compare the ability of compounds to activate NAMPT relative to their ability to compete away P7C3-S326 crosslinking (top scatter plot), ability to protect cells from doxorubicin-mediated toxicity (middle scatter plot), or ability to facilitate NAD restoration in doxorubicin-treated cells (bottom scatter plot). […] Data are expressed as mean±SD of duplicate independent assays.
The enzymatic activity of recombinant NAMPT was monitored in a coupled assay wherein nicotinamide conversion to NMN was followed by sequential production of NAD (via the NMNAT enzyme) and NADH (via alcohol dehydrogenase). To minimize variation, a control reaction was run in each assay prior to compound addition.
Briefly, NAMPT first converted nicotinamide to NMN, which was followed by sequential production of NAD via nicotinamide mononucleotide adenylyl-transferase (NMNAT). NAD was then reduced to NADH by alcohol dehydrogenase (Sigma) using alcohol as the substrate. The resulting NADH was monitored by OD340 nm. […] 10 mM stocks of P7C3 analogs in DMSO were further diluted in ethanol prior to applying to the reaction. To minimize variation, a control reaction was run in each assay prior to compound addition.

[2] = tested on: hippocampal neurogenesis (Dentate Gyrus); experiment: in vivo neurogenesis assay (BrdU+ cells in dentate gyrus); set-up: species or system mice; settings: living mice; vehicle (DMSO) 7.3
In short: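 Pools of ten compounds infused into the left ventricle of two adult mice per pool via cannula and mini-pump over one week, aimed at mid-nanomolar levels. Daily BrdU co-injected; brain sections stained for BrdU to count new dentate gyrus cells.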

[3] = target: T2, p70 (NAMPT) (Homo sapiens, UniProt P43490); experiment: binding competition for photo-crosslinking of P7C3-S326 to p70 in H2122 cells; settings: 0.3 μM P7C3-S326 plus 5 μM competitor, p70 band intensity, P7C3-S326 alone compared with plus competitor, vehicle 1.0
T2 construct: endogenous in cells; host or cells: H2122 lung cancer cells
In short: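 H2122 cells were co-treated with 0.3 μM P7C3-S326 and 5 uM competing P7C3 analogs for 2 hours at 37° C, then UV-crosslinked at 306 nm for 15 minutes. Lysates were clicked to a fluorescent dye and run on SDS-PAGE. The p70 band was quantified relative to the DMSO control.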

T2 sequence (P43490 whole entry): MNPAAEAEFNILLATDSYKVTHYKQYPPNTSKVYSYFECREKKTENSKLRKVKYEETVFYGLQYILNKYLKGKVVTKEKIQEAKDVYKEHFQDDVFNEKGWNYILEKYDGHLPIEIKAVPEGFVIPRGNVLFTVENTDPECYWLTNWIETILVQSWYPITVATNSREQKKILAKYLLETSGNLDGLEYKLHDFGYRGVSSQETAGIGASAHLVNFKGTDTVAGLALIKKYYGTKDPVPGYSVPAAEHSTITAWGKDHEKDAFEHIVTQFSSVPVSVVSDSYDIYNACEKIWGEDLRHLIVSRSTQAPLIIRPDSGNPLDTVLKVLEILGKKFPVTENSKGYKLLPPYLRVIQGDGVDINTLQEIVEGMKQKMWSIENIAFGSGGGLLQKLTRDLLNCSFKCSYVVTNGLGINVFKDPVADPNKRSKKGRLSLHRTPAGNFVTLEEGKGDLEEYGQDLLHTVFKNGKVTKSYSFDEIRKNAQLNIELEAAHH
T1 sequence (P43490 whole entry): as above

SMILES | NAMPT activation [1] | Neurogenesis # BrdU+ Cells (X10E06)/mm3 Dentate Gyrus [2] | Binding competition [3]
Brc1ccc2c(c1)c1cc(Br)ccc1n2Cc1nnn[nH]1 [S233] | 0.88 | 7.3 (X10E06)/mm3 | 0.9
COc1cccc(N2CC(Cn3c4ccc(Br)cc4c4cc(Br)ccc43)OC2=O)c1 (centres unmarked) [S12] | 1.24 | 10.8 (X10E06)/mm3 | 2.4
COc1cccc(NCC(F)(F)Cn2c3ccc(Br)cc3c3cc(Br)ccc32)c1 [S59] | 1.02 | 10.7 (X10E06)/mm3 | 1.2
O=S(=O)(CC(F)Cn1c2ccc(Br)cc2c2cc(Br)ccc21)c1cccc(O)c1 (centres unmarked) [S101] | 1.12 | 9.9 (X10E06)/mm3 | 2.4
[N-]=[N+]=NCC(F)Cn1c2ccc(Br)cc2c2cc(Br)ccc21 (centres unmarked) [S189] | 1.06 | 6.9 (X10E06)/mm3 | 3.6
COC(=O)NC(=O)Cn1c2ccc(Br)cc2c2cc(Br)ccc21 [S234] | 0.93 | 17.8 (X10E06)/mm3 | 1.0
COc1cccc(NC(SC)C(=O)Cn2c3ccc(Br)cc3c3cc(Br)ccc32)c1 (centres unmarked) [S4] | 1.01 | 11.7 (X10E06)/mm3 | 1.4
N#CCn1c2ccc(Br)cc2c2cc(Br)ccc21 [S235] | 0.97 | 11.7 (X10E06)/mm3 | 1.8
COc1cccc(S(=O)(=O)CC(F)Cn2c3ccc(Br)cc3c3cc(Br)ccc32)c1 (centres unmarked) [S81] | 0.96 | 12.6 (X10E06)/mm3 | 1.2
FC(F)(COc1ccccc1)Cn1c2ccc(Br)cc2c2cc(Br)ccc21 [S56] | 1.06 | 8.4 (X10E06)/mm3 | 1.0
O=S(=O)(CC(F)Cn1c2ccc(Br)cc2c2cc(Br)ccc21)c1ccccc1 (centres unmarked) [S53] | 1.05 | 17.1 (X10E06)/mm3 | 1.4
CN1C(=O)CN=C(c2ccc(Cl)cc2)c2cc(Cl)ccc21 [S203] | 1.00 | 10.8 (X10E06)/mm3 | 3.9
COc1cccc(NCC(C)(O)Cn2c3ccc(Br)cc3c3cc(Br)ccc32)c1 (centres unmarked) [S54] |  | 16.7 (X10E06)/mm3 | 3.8
COc1ccc2[nH]cc(CCNC(C)=O)c2c1 [S193] |  | 7.8 (X10E06)/mm3 | 1.1
CC(C)NCC(O)CN1c2ccccc2CCc2ccccc21 (centres unmarked) [S144] |  | 9.1 (X10E06)/mm3 | 1.4
OCc1cc2c(cn1)[nH]c1ccc(Br)cc12 [S204] |  | 14.2 (X10E06)/mm3 | 2.3
COc1cccc(N(CC(O)Cn2c3ccc(Br)cc3c3cc(Br)ccc32)C(C)=O)c1 (centres unmarked) [S9] |  | 11.9 (X10E06)/mm3 | 2.0
CNCCC(Oc1ccc(C(F)(F)F)cc1)c1ccccc1 (centres unmarked) [S122, Prozac, reference compound] |  | 10.0 (X10E06)/mm3 | 1.4
COc1ccc(NCC(F)Cn2c3ccc(Br)cc3c3cc(Br)ccc32)cc1 (centres unmarked) [S60] |  | 12.6 (X10E06)/mm3 | 1.4
O=C(O)CCc1c[nH]c2ccccc12 [S242] |  | 10.8 (X10E06)/mm3 | 1.2

SMILES | NAMPT activation [1] | Neurogenesis # BrdU+ Cells (X10E06)/mm3 Dentate Gyrus [2] | Binding competition [3]
O=C(O)c1ccc2[nH]c3ccc(Br)cc3c2c1 [S225] |  | 15.2 (X10E06)/mm3 | 2.2
[O-][S+](CC(O)Cn1c2ccc(Br)cc2c2cc(Br)ccc21)c1ccccc1 (centres unmarked) [S27] |  | 8.1 (X10E06)/mm3 | 2.8
OC(CNc1ccccc1)Cn1c2ccc(C3CC3)cc2c2cc(C3CC3)ccc21 (centres unmarked) [S62] |  | 11.8 (X10E06)/mm3 | 1.2
NC(Cc1c[nH]c2ccc(Br)cc12)C(=O)O (centres unmarked) [S207] |  | 16.2 (X10E06)/mm3 | 1.1
Oc1cccc(SCC(O)CC2c3ccc(Br)cc3-c3cc(Br)ccc32)c1 (centres unmarked) [S91] |  | 8.2 (X10E06)/mm3 | 3.4
CN(C)C(=O)Cn1c2ccc(Br)cc2c2cc(Br)ccc21 [S215] |  | 8.3 (X10E06)/mm3 | 3.6
COc1cccc(NCC(O)CN2c3ccc(Br)cc3CCc3cc(Br)ccc32)c1 (centres unmarked) [S76] |  | 14.2 (X10E06)/mm3 | 1.1
Cc1cc(Br)cc2c3cc(Br)cc(C)c3n(CC(O)CNc3ccccc3)c12 (centres unmarked) [S161] |  | 11.4 (X10E06)/mm3 | 3.1
O=C(O)c1cc2c3ccccc3n(CC(O)COc3ccccc3)c2cn1 (centres unmarked) [S172] |  | 14.2 (X10E06)/mm3 | 1.1
CN(C)CCC=C1c2ccccc2CCc2ccccc21.Cl [S86, Amitriptyline, reference compound] |  | 9.7 (X10E06)/mm3 | 1.3
CN1CCN2c3ncccc3Cc3ccccc3C2C1 (centres unmarked) [S126, Remeron, reference compound] |  | 8.8 (X10E06)/mm3 | 1.3
COc1c(Br)ccc2c1c1cc(Br)ccc1n2CC(O)CNc1ccccc1 (centres unmarked) [S168] |  | 14.6 (X10E06)/mm3 | 3.5
CNCCC=C1c2ccccc2CCc2ccccc21.Cl [S89, Nortriptyline, reference compound] |  | 8.7 (X10E06)/mm3 | 1.3
O=C(O)c1ccc2c(c1)c1cc(Br)ccc1n2CC(O)COc1ccccc1 (centres unmarked) [S153] |  | 10.7 (X10E06)/mm3 | 1.4
COc1cccc(N(CC(O)Cn2c3ccc(Br)cc3c3cc(Br)ccc32)S(=O)(=O)C(F)(F)F)c1 (centres unmarked) [S244] |  | 11.6 (X10E06)/mm3 | 1.1
CC(C)(O)Cn1c2ccc(Br)cc2c2cc(Br)ccc21 [S169] |  | 9.2 (X10E06)/mm3 | 3.0
COc1ccc([C@H](CN(C)C)C2(O)CCCCC2)cc1 [S124, Effexor, reference compound] |  | 8.9 (X10E06)/mm3 | 1.1
O=C(O)c1cc2c(cn1)[nH]c1ccc(Br)cc12 [S206] |  | 14.8 (X10E06)/mm3 | 1.4
O=S(=O)(CC(O)Cn1c2ccc(Cl)cc2c2cc(Cl)ccc21)c1ccccc1 (centres unmarked) [S52] |  | 10.8 (X10E06)/mm3 | 4.3
CCC(C)N(C)C(=O)c1cc2ccccc2c(-c2ccccc2Cl)n1 (centres unmarked) [S200, PK11195, reference compound] |  | 11.1 (X10E06)/mm3 | 1.3
